Test results taken from US9132097B2, “Nanoparticles stabilized with nitrophenylboronic acid compositions” (California Institute of Technology, priority 2013, dated 2015).
Where two headings read alike, the source gives them in different places.

Columns and labels:
BT-474 xenograft tumors = system: BT-474 xenograft tumors
Method: Treatments began on day 1. […] All treatments were freshly prepared and given via intravenous tail vein injection. Injections were standardized at 150 μl per 20 g body weight of mice. […] Tumor sizes were recorded three times a week using caliper measurements (length×width2/2) and health of the animals was continuously monitored. Animals were euthanized when tumor volumes exceeded 1000 mm^3. Six weeks after beginning of the treatment, animals were euthanized by CO2 asphyxiation.

[1] = Plasma pharmacokinetics of free CPT in mice (comparison); type: in vivo; conditions: after 8 h, CPT alone at 10 mg/kg, CD2F1 mice
Method: Free CPT injected at 10 mg/kg into CD2F1 mice is shown as comparison. […] (B) Plasma concentration of unconjugated CPT as a function of time.

[2] = Irinotecan 80 mg/kg i.v. once per week for 3 weeks, Nbegin 8
[3] = CPT 8 mg/kg i.v. once per week for 3 weeks, Nbegin 8

Row | Structure (SMILES) | Tumor inhibition compared to control group (BT-474 xenograft tumors; Irinotecan 80 mg/kg i.v. once per week for 3 weeks) | NNTRD (number of non-treatment related death) (BT-474 xenograft tumors; [2]) | NTRD (number of treatment related death) (BT-474 xenograft tumors; [2]) | Nend (number of animals surviving to end of study) (BT-474 xenograft tumors; [2]) | Neuthan (number of animals euthanized due to exceeding tumor size limit of 1000 mm^3) (BT-474 xenograft tumors; [2]) | Nreg to zero (number of animals with tumors regressed to zero at the end of study) (BT-474 xenograft tumors; [2]) | Injected dose remaining in circulation [1] [%] | Tumor inhibition compared to control group (BT-474 xenograft tumors; CPT 8 mg/kg i.v. once per week for 3 weeks) | NNTRD (number of non-treatment related death) (BT-474 xenograft tumors; [3]) | NTRD (number of treatment related death) (BT-474 xenograft tumors; [3]) | Nend (number of animals surviving to end of study) (BT-474 xenograft tumors; [3])
1 | CCc1c2c(nc3ccc(OC(=O)N4CCC(N5CCCCC5)CC4)cc13)-c1cc3c(c(=O)n1C2)COC(=O)[C@]3(O)CC [Irinotecan] | non-significant tumor inhibition | 0 | 1 | 8/7 | 0 | 0 |  |  |  |  | 
2 | CC[C@@]1(O)C(=O)OCc2c1cc1n(c2=O)Cc2cc3ccccc3nc2-1 [CPT, Camptothecin] |  |  |  |  |  |  | 0.01 | no tumor inhibition | 0 | 4 | 8/0
